One data set deals with wild-type mice. Briefly: Cardiac mitochondrial, cytosolic and nuclear non-heme iron in wild-type mice treated with iron chelator. The data set is classed as in vivo. Conditions: wild-type mice at baseline, one-week regimen, BPD 80 mg/kg per day, DFO 50 mg/kg every other day. Here is the method: Mice were treated with 80 mg/kg BPD (Sigma) in normal saline solution daily or 50 mg/kg DFO (Sigma) in normal saline every other day via intraperitoneal injection. The dose of BPD was chosen based on its ability to modulate cardiac mitochondrial iron, and the dose of DFO was chosen according to previously published studies (Ichikawa et al., 2014). BPD was prepared as a 400 mg/ml stock solution in ethanol and diluted 1:100 in normal saline to working concentration. DFO was prepared as a 250 mg/ml stock in water and diluted 1:100 in normal saline to working concentration. […]
Tissue iron was measured colorimetrically by the formation of a complex with bathophenanthroline disulfonate or ferene-S as described previously (Ichikawa et al., 2012; Khechaduri et al., 2013). […] Quantitative measurement of labile iron was done according to previously described methods (Cabantchik et al., 1996; Petrat et al., 2002b). […] Fluorescence intensity was measured using Gemini XS plate reader (Molecular Device) with following excitation emission setting: ex/em 490 nm/520 nm for mitoTracker Green and calcein, 564 nm/601 nm for RPA, and 350 nm/461 nm for Hoechst 33342. After initial measurement, 2 mM of PIH (Abcam) was added to each well and fluorescence signal was measured again. […]

Data set [1] deals with mitochondrial aconitase, complex I, II and IV. Nature of the data set: Mitochondrial enzyme and complex activities in H9c2 cells. The data set is classed as cell-based, rat. The conditions noted are these: chelator pre-treatment, then H2O2. Here is the method:
H9c2 cardiomyoblasts were cultured in DMEM (ATCC) supplemented with 10% FBS (Thermo) and Penicillin/Streptomycin (Cellgro). HEK293T cells were cultured in MEM (Cellgro) supplemented with 10% FBS, sodium pyruvate (Cellgro) and Penicillin/Streptomycin. Unless otherwise specified, cells were treated with 200 μM of DFO or 100 μM of BPD for two hours when indicated prior to addition of 600 μM of H2O2 when indicated for 6 hours. RNA isolation and qRT-PCR RNA was isolated using RNA-STAT60 (Tel-Test) according to the manufacturer's instructions, and subjected to DNAse I (Ambion) digestion to remove residual DNA. Purified RNA was then reverse transcribed with Random Hexamer and Oligo dT(16) (Applied Biosystems) and amplified on a 7500 Fast Real-Time PCR system using Fast SYBR Green PCR Master Mix (Applied Biosystems). mRNA levels were calculated based on the difference of threshold Ct values in target gene and average Ct values of 18s, Actb, B2m, and Hprt in the same sample.
Mitochondria were isolated from cells as described above. Mitochondrial complex I, II and IV activity was measured as described previously (Spinazzi et al., 2012). Aconitase activity was measured using Aconitase Activity Microplate Assay Kit (Abcam). Citrate synthase activity was measured from the same sample using Citrate Synthase Activity Kit (BioVision) and was used to normalize the mitochondrial complex activity.

Data set [2] has as its system cardiac-specific ABCB8 knockout mice. Nature of the data set: Spontaneous cardiomyopathy in cardiac-specific ABCB8 knockout mice. It is filed as in vivo. An excerpt:
We next took a loss-of-function approach, and studied whether a decrease in mitochondrial iron in cardiac-specific ABCB8 knockout mice, a model of spontaneous cardiomyopathy with mitochondrial iron overload (Ichikawa et al., 2012), protects against cardiac tissue damage. […] Mitochondrial iron in ABCB8 flox/flox (LoxP sequence flanking exon one of both alleles of ABCB8) mice with or without the αMHC-MER-Cre-MER transgene was modulated with BPD or vehicle control for one week before the induction of ABCB8 deletion with tamoxifen. BPD treatment continued until four weeks after the completion of tamoxifen treatment, at which point mitochondrial iron and cardiac function were measured. The effectiveness of Cre-mediated gene excision was confirmed at the protein level (FIG. 15). […] These findings indicate that prevention of mitochondrial iron accumulation through a pharmacological approach delays the development of cardiomyopathy in an animal model of mitochondrial iron accumulation.
Cardiomyocyte-specific ABCB8 transgenic mice were generated as described previously (Ichikawa et al., 2014) and backcrossed for at least 8 generations. Mice with both alleles of ABCB8 floxed (ABCB8f/f) were crossed to α-MHC MER-Cre-MER mice, and the first generation is back-crossed with ABCB8f/f mice to generate ABCB8f/f mice with or without α-MHC MER-Cre-MER transgene. Tamoxifen-induced Cre translocation and deletion of ABCB8 in the heart was achieved using a previously described protocol (Ichikawa et al., 2012). All animal studies were approved by the Institutional Animal Care and Use Committee at Northwestern University and were performed in accordance with guidelines from the National Institutes of Health.
Mice were treated with 80 mg/kg BPD (Sigma) in normal saline solution daily or 50 mg/kg DFO (Sigma) in normal saline every other day via intraperitoneal injection. The dose of BPD was chosen based on its ability to modulate cardiac mitochondrial iron, and the dose of DFO was chosen according to previously published studies (Ichikawa et al., 2014). BPD was prepared as a 400 mg/ml stock solution in ethanol and diluted 1:100 in normal saline to working concentration. DFO was prepared as a 250 mg/ml stock in water and diluted 1:100 in normal saline to working concentration.
Parasternal short- and long-axis views of the heart were obtained using a Vevo 770 high-resolution imaging system with a 30 MHz scan head. 2D and M-mode images were obtained and analyzed. Ejection fraction was calculated from M mode image using Teichholtz equation, and fractional shortening was directly calculated from end-systolic and end-diastolic chamber size from M-mode images.
Tissue iron was measured colorimetrically by the formation of a complex with bathophenanthroline disulfonate or ferene-S as described previously (Ichikawa et al., 2012; Khechaduri et al., 2013). For qualitative measurement of mitochondrial labile iron, cells were stained with Rhodamine B-[1,10-phenanthrolin-5-yl)-aminocarbonyl]benzyl ester (RPA) (Squarix) and mitoTracker Green (Invitrogen). Images were obtained on a Zeiss AxioObserver.Z1 microscope. Quantitative measurement of labile iron was done according to previously described methods (Cabantchik et al., 1996; Petrat et al., 2002b). Briefly, cells were stained with RPA and mitoTracker Green for mitochondrial labile iron measurement and calcein (Invitrogen) and Hoechst 33342 (Invitrogen) for cytosolic labile iron measurement. Fluorescence intensity was measured using Gemini XS plate reader (Molecular Device) with following excitation emission setting: ex/em 490 nm/520 nm for mitoTracker Green and calcein, 564 nm/601 nm for RPA, and 350 nm/461 nm for Hoechst 33342. After initial measurement, 2 mM of PIH (Abcam) was added to each well and fluorescence signal was measured again. […]

“Also recorded” adds a separate entry of the source.

Turning to `c1ccc(-c2ccccn2)nc1` [BPD, 2,2′-bipyridyl], the cardiac mitochondrial iron entry in the data set with wild-type mice is reported as “decreased cardiac mitochondrial iron; also recorded: decreased baseline mitochondrial iron; also recorded: lower mitochondrial iron”. Further, the “activities of mitochondrial aconitase, complex I, II and IV after H2O2 treatment” value in data set [1] was “protected the activities of mitochondrial aconitase, complex I, II and IV after H2O2 treatment”. Moreover, the “cardiac function in ABCB8 knockout mice” value in data set [2] (BPD from 1 week before deletion until 6 weeks after deletion, read at 6 weeks after deletion) is listed as “preserved cardiac function”. In data set [2] (Cre+ (KO) mice, BPD from one week before tamoxifen until four weeks after tamoxifen), the “mitochondrial iron accumulation in ABCB8 KO mice” value was “prevented the development of iron accumulation”. Moreover, the “mitochondrial iron in Cre- (WT) mice” value in data set [2] (Cre- (WT) mice, same BPD regimen) was “resulted in a decrease in mitochondrial iron”. Moreover, the “cardiotoxicity of the treatment itself” value in data set [2] (WT mice, same BPD regimen) is reported as “not cardiotoxic”. For the same compound, in data set [2] (chelator-treated ABCB8 KO mice), the “lipid peroxidation products in ABCB8 KO mice” value is listed as “attenuated the increase”. Moreover, the “cardiac function (ejection fraction, fractional shortening) in ABCB8 KO mice” value in data set [2] (four weeks after completion of tamoxifen treatment) was “preserved cardiac function”. In data set [2] (four weeks after tamoxifen), the “expression of Nppa, Nppb and Myh7 in ABCB8 KO mice” value is “attenuated expression of Nppa, Nppb and Myh7”.
